Measured values: US7713994B2 (Wyeth LLC, priority 2005, dated 2010)

Legend:
cyclin B/CDK1 enzyme = target: T1, cyclin B/CDK1 enzyme (Homo sapiens, UniProt P06493); experiment: CDK1 ELISA kinase assay (phospho-Rb ser 795 detection); format: biochemical; conditions: In Vitro Enzyme Assays, read-out: CDK1 IC50
T1 construct: purchased New England BioLabs; host or cells: Sf9 insect cells, recombinant baculovirus
In short: (§1)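 Wells were coated overnight with GST-Rb C-terminal fragment, then blocked. Compound (10 ug/ml final) and cyclin/CDK enzyme from baculovirus-infected Sf9 cells with 200 μM ATP reacted 1 h at 30° C. Ser795 phosphorylation was detected by ELISA at 450 nm.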

LoVo = experiment: Cytotoxicity assay (SRB), LoVo; format: cell-based; conditions: Homo sapiens, LoVo, 72 h, LoVo cells, SRB, three days; read-out: In Vitro Cellular Activity IC50 LOVO
In short: (§2)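 Plate cells, let them attach overnight, add compound dilutions in RPMI 1640/5% FBS, and incubate 3 days (BT474 6 days). Then fix with TCA, stain with SRB, dissolve the dye in Tris and read at 540 nm.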

HCT-116 = experiment: Cytotoxicity assay (SRB), HCT-116; format: cell-based; conditions: Homo sapiens, HCT-116, 72 h, HCT116 cells, SRB, three days; read-out: In Vitro Cellular Activity IC50 HCT116
In short: as §2

cyclin E/CDK2 enzyme = target: T2, cyclin E/CDK2 enzyme (Homo sapiens, UniProt P24941); experiment: CDK2 ELISA kinase assay (phospho-Rb ser 795 detection); format: biochemical; conditions: In Vitro Enzyme Assays, read-out: CDK2 IC50
T2 construct: made in house; host or cells: Sf9 insect cells, recombinant baculovirus
In short: as §1

MCF-7 = experiment: Cytotoxicity assay (SRB), MCF-7; format: cell-based; conditions: Homo sapiens, MCF7, 72 h, MCF-7 cells, SRB, three days; read-out: In Vitro Cellular Activity IC50 MCF-7
In short: as §2

cyclin D1/cdk 4 enzyme = target: T3, cyclin D1/cdk 4 enzyme (Homo sapiens, UniProt P11802); experiment: CDK4 ELISA kinase assay (phospho-Rb ser 795 detection); format: biochemical; conditions: In Vitro Enzyme Assays, 200 μM ATP, read-out: CDK4 IC50
T3 construct: made in house; host or cells: Sf9 insect cells, recombinant baculovirus
In short: as §1

BT474 = experiment: Cytotoxicity assay (SRB), BT474; format: cell-based; conditions: Homo sapiens, BT-474, 144 h, BT474 cells, SRB, 6 days; read-out: In Vitro Cellular Activity IC50 BT474
In short: as §2

T3 sequence (P11802 whole entry, species assumed): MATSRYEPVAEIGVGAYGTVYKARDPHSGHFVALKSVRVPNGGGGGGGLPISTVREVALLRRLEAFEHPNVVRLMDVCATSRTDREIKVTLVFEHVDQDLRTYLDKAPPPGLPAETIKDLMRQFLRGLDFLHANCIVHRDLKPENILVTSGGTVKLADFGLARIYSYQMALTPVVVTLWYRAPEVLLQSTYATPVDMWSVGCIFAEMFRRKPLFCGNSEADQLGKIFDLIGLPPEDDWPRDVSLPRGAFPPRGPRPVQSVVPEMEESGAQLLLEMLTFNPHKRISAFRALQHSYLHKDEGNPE
T3 sequence (P24385 whole entry partner, species assumed): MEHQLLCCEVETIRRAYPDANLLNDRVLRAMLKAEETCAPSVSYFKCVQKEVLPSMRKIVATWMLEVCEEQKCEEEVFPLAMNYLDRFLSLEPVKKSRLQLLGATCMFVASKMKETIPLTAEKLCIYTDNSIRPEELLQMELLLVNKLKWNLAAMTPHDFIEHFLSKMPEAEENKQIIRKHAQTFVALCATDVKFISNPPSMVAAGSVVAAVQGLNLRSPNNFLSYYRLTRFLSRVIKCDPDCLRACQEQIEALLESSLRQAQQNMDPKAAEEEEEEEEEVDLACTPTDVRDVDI
T1 sequence (P06493 whole entry): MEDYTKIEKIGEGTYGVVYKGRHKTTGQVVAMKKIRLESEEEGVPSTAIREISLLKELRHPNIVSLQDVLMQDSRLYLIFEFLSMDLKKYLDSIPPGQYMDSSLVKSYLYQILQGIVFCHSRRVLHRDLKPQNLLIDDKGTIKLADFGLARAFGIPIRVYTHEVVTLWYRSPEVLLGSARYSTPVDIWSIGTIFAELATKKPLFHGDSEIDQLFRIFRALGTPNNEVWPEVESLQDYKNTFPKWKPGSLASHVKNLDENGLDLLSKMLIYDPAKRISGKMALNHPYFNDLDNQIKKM
T1 sequence (P14635 whole entry partner): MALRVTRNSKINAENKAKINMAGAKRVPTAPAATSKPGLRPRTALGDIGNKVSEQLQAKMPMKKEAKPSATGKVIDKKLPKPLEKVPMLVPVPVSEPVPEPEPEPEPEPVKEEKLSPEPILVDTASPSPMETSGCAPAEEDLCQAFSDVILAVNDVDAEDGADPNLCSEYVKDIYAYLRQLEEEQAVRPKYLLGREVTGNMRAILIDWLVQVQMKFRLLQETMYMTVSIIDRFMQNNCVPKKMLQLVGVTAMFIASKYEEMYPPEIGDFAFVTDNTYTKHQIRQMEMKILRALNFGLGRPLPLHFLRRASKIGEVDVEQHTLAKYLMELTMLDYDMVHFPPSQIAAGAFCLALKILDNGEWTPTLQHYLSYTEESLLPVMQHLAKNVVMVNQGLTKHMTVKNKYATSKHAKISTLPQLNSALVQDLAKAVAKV

Compound	IC50 (cyclin B/CDK1 enzyme) [µM]	IC50 (LoVo) [µM]	IC50 (HCT-116) [µM]	IC50 (cyclin E/CDK2 enzyme) [µM]	IC50 (MCF-7) [µM]	melting point	IC50 (cyclin D1/cdk 4 enzyme) [µM]	IC50 (BT474) [µM]
COCCOc1ccc(CN/C=C2\C(=O)NC(=O)c3ccc(Br)cc32)cc1O [Example 158]	> 50	30	32	> 50	> 50	179 to 180 °C	0.04	28
COc1ccc(CNC=C2C(=O)NCc3ccccc32)cc1O [Example 160, 4-[(3-Hydroxy-4-methoxy-benzylamino)-methylene]-1,4-dihydro-2H-isoquinoline-3-one]	> 50	43	> 50	31	30	177 to 179 °C (dec.)	20.4	> 50
O=C1NCc2ccccc2C1=CNc1ccc(CN2CCCCC2)cc1 [Example 162, 4-[(4-Piperidin-1-ylmethyl-phenylamino)-methylene]-1,4-dihydro-2H-isoquinolin-3-one]	> 50	9.2	4.4	> 50	3.9	188 to 189 °C (dec.)	18.6	23
O=C1NC(=O)c2ccc(I)cc2/C1=C/NCc1ccc(Cl)c(O)c1 [Example 165, (4Z)-4-{[(4-Chloro-3-hydroxybenzyl)amino]methylene}-6-iodoisoquinoline-′1,3(2H,4H)-dione]	> 50	> 50	23	18.9	> 50	324 to 325 °C	0.2	> 50
O=C1NCc2ccccc2C1=CNc1ccc(CCN2CCCC2)cc1 [Example 170, 4-{[4-(2-Pyrrolidin-1-yl-ethyl)-phenylamino]-methylene}-1,4-dihydro-2H-isoquinolin-3-one]	> 50	21	6.2	> 50	11	169 to 173 °C (dec.)	46.5	27
CN1CCN(c2ccc(N/C=C3\C(=O)NC(=O)c4ccc(C#Cc5ccccc5)cc43)cc2)CC1 [Example 171, (4Z)-4-({[4-(4-Methylpiperazin-1-yl)phenyl]amino}methylene)-6-(phenylethynyl)-isoquinoline-1,3(2H,4H)-dione]	33.2	9.7	1.2	> 50	3	169 to 170 °C	2.3	5.1
COc1ccc(C#Cc2ccc3c(c2)/C(=C/Nc2ccc(N4CCN(C)CC4)cc2)C(=O)NC3=O)cc1 [Example 172, (4Z)-6-[(4-Methoxyphenyl)ethynyl]-4-({[4-(4-methylpiperazin-1-yl)phenyl]amino}-methylene)isoquinoline-1,3(2H,4H)-dione]	23.6	> 50	8.7	> 50	> 50	155 to 156 °C	23.6	17
O=C1NC(=O)c2ccc(Br)cc2/C1=C/Nc1ccc(CCN2CCCC2)cc1 [Example 176, 6-Bromo-4-{[4-(2-pyrrolidin-1-yl-ethyl)-phenylamino]-methylene}-4H-isoquinolin-1,3-dione]	> 50	4.5	3.4	> 50	3.8	212 to 214 °C (dec.)	1.3	7.2
COCC#Cc1ccc2c(c1)/C(=C/Nc1ccc(N3CCN(C)CC3)cc1)C(=O)NC2=O [Example 177, (4Z)-6-(3-Methoxyprop-1-ynyl)-4-({[4-(4-methylpiperazin-1-yl)phenyl]amino}-methylene)isoquinoline-1,3(2H,4H)-dione]	> 50	3.9	3.1	> 50	4.1	209 to 210 °C	1.1	3.9
O=C1NC(=O)c2ccc(Br)cc2/C1=C/NCc1ccc(OC(F)F)c(O)c1 [Example 180]	> 50	6.2	5.9	> 50	15	256 to 258 °C	0.07	5.1
